6 molecules from patent publication US6436908B1, “Use of exogenous β-adrenergic receptor and β-adrenergic receptor kinase gene constructs to enhance myocardial function” (Duke University, priority 1995, dated 2002) can be followed below.

Read-outs that look alike come from different tables or passages of the source.

For one data set, the target named is T1, β1-AR (Mus musculus, UniProt P34971).
T1 construct: Sarcolemmal membranes were prepared from control mouse hearts; from tissue; host or cells: sarcolemmal membranes of control mouse hearts (A3), and of control and TGβK12 mouse hearts (A4)
T1 sequence (P34971 whole entry): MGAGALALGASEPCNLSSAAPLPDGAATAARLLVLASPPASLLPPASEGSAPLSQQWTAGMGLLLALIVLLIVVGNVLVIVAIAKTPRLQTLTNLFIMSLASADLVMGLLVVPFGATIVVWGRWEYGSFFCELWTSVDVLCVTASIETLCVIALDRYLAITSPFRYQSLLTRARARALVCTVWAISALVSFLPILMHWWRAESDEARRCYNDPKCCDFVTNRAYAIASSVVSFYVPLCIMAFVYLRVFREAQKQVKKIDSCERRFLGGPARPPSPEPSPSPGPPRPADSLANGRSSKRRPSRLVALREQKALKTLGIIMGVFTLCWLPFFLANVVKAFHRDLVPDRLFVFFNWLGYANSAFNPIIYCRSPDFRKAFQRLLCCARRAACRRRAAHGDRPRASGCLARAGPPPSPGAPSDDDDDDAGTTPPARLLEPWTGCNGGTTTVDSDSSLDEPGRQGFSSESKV
As to the kind of experiment: ICI 118,551 competition binding against [125I]cyanopindolol, control heart sarcolemmal membranes, low affinity component. The method, then:
Myocardial sarcolemmal membranes were prepared by homogenizing whole hearts in ice-cold buffer A [50 mM HEPES (pH 7.3), 150 mM KCl, 5 mM EDTA]. Nuclei and tissue were separated by centrifugation at 800×g for 10 min and the crude supernatant was then centrifuged at 20,000×g for 10 min. The subsequent pellet was resuspended in buffer A and centrifuged at 20,000×g for 10 min. The final pellet was resuspended at a concentration of 2-3 mg protein per ml in buffer B [50 mM HEPES (pH7.3), 5 mM MgCl2].

The subject of data set [1] is left ventricular function. As to the kind of experiment: LV dP/dtmax before and after systemic β2-AR antagonist. In kind it is in vivo, mouse. The text has this: FIG. 7. Effect of administering β-AR antagonist. […] Asterisks indicate p<0.05, paired Student's T-test.
In the next data set the test system is adenylyl cyclase. It counts as biochemical, mouse. The settings on record: for NaF stimulated cyclase activity, mean (±SD): 10 mM NaF; for EC50: read-out: EC50 of isoproterenol-stimulated adenylyl cyclase activity. The method, then:
FIG. 4. Adenylyl Cyclase Activity. Membranes were prepared from TG4 hearts and nontransgenic litter mate control hearts as described in FIG. 2. […] Each point on the graph represents the mean±SEM of seven independent experiments each performed in duplicate.
The inotropic response resulting from myocardial β-AR stimulation is mediated through activation of adenylyl cyclase and the intracellular second messenger cAMP. To assess whether the myocardium of transgenic animals overexpressing β2-AR had enhanced adenylyl cyclase activity, myocardial membranes were incubated with [^32P]ATP and the rate of cAMP formation was measured.

In another data set the test system is isolated atria. As to the kind of experiment: Isometric tension development in isolated atria. Set-up: species or system mouse. To be noted: TG4 atria, doses maximally stimulating controls. The method, then:
FIGS. 5A-C. Baseline and maximally stimulated responses in isolated atria. Atria were suspended under optimal resting tension in modified Kreb's bicarbonate solution at 30° C. […]. Data are shown as the mean values±SEM for control animals (n=7 or 8) and TG4 animals (n=5 or 6). In all three responses, the baseline values for the TG4 animals were greater than the baseline in the control animals (* P<0.05 Student's t-test), but not different from either control isoproterenol-stimulated values or from TG4 isoproterenol-stimulated values.
To directly assess the effect of β2-AR overexpression on myocardial inotropy, isometric tension development was determined in isolated, perfused atria. […] In the left atria, basal tension was approximately three times that of the control levels. Baseline isometric tension in the transgenics was not different from the maximal isoproterenol-stimulated tension in control atria. […] To eliminate the possibility that this increased rate might be contributing to the increased tension measured in the transgenic myocardium, experiments were conducted to assess the relationship of rate to developed tension. From a rate of 240 to 360 beats/min. […] All atria studied were weighed, and no significant differences were noted between transgenic and control weights.

Data set [2] has as its system left ventricular function. In words: In vivo assessment of left ventricular function, TG4 and control mice. Set-up: species or system mouse.
For data set [3], the system named is left ventricular function. As to the kind of experiment: In vivo assessment of left ventricular function, TGβK12 and TGMini27 mice. Set-up: species or system mouse. The settings on record: for mean LV dP/dtmax (maximum contractility): 500 pg isoproterenol; for mean LV dP/dtmin (maximum LV relaxation): 1000 pg isoproterenol. The method, then:
FIG. 12. In vivo assessment of left ventricular function of TGβK12 (n=10) and nontransgenic control mice (n=10). Animals were anesthetized and aortic and left ventricular catheters placed (28). […]; (B) LV dP/dtmin; (C) heart rate (HR); and (D) LV systolic pressure. Data are reported as means±SEM and were analyzed with a two way analysis of variance (ANOVA) with post hoc testing performed using Scheffe's F test (*, P<0.05). […]; (B) dP/dtmin, P<0.05; (C) HR, P<0.01 but not (D) LV systolic pressure, P=ns.
FIG. 13. In vivo assessment of left ventricular function of TGMini27 (n=7) and nontransgenic control mice (n=7). Mice were treated as in FIG. 4 (28) and four parameters are shown; (A) LV dP/dtmax,; (B) LV dP/dtmin; (C) HR; and (D) LV systolic pressure. Data are reported as mean±SEM and were analyzed as in FIG. 4 (*, P<0.05). […]; (B) dP/dtmin, P<0.005; and (D) LV systolic pressure, P<0.005.
Mice were anesthetized with a mixture of ketamine and xylazine (Milano et al., Science 264, 582 (1994)). A cervical incision was made, the trachea intubated and the animal connected to a volume-cycled ventilator. A carotid artery was then cannulated with a flamestretched PE 50 catheter connected to a modified P50 statham transducer. […]. Continuous pressures were recorded on an eight channel chart recorder and in digitized form on computer disk for beat averaging. Ten sequential beats were averaged for each measurement.

Data set [4] addresses Gβγ. In words: cell-based or functional assay.
Another data set has as its system βARK. As to the kind of experiment: GRK activity of heart extracts, rhodopsin phosphorylation assay. In kind it is biochemical, mouse. The settings on record: TGMini27 heart extracts, 50 μg protein, ~10 pmoles Gβγ, n=5.
Data set [5] has as its target Gβγ.

For the molecule `Cc1ccc(OCC(O)C(C)NC(C)C)c2c1CCC2` (stereo not shown) [ICI 118,551], the Ki (as a rule, the equilibrium dissociation constant of an inhibitor or competing ligand from its target) on β1-AR turned out to be 390 nM. Further, on β1-AR (75 nM ICI 118,551), the “effect on the β1-AR binding component” value is “insignificantly affecting”. In addition, the “share of low affinity binding population (β1 subtype)” value at β1-AR (control mouse heart sarcolemmal membranes) amounted to 75%. Besides, in [1] (TG4 transgenic mice, 5 μg systemic, four minutes after administration), the “change in elevated baseline LV dP/dtmax” value was “Marked decreases”. Further, the “change in LV dP/dtmax” value in [1] (control animals) was “no significant change”.

For the molecule `[F-].[Na+]` [NaF], the “NaF stimulated cyclase activity, mean (±SD)” value with adenylyl cyclase (control membranes) is 606.4±207.8 pmol cAMP/min/mg protein; in the data set on adenylyl cyclase (transgenic (TG4) membranes), 445.5±165.5 pmol cAMP/min/mg protein.

Regarding `CC(C)NCC(O)c1ccc(O)c(O)c1` (stereo not shown) [isoproterenol], the EC50 (commonly the midpoint of the concentration-response curve) at adenylyl cyclase (TG4 heart membranes) stood at 22 nM; on adenylyl cyclase (nontransgenic control heart membranes), 160 nM. The “inotropic response of atria (isometric tension)” value in the data set with isolated atria was “no further inotropic response”. For the same molecule, the “change in LV dP/dtmax” value in [2] (control animals, isoproterenol infusion) is “progressive increases”. Further, the “effect on blood pressure” value in [2] (doses greater than 1 nanogram) was “significant lowering of blood pressure”. The “left ventricular responses to isoproterenol” value in [3] (TGMini27 mice versus controls) is given as “markedly enhanced”. For the same molecule, the figures for the “mean LV dP/dtmax (maximum contractility)” value in [3] (TGMini27 mice) and in data set [3] (TGβK12 mice) were 10,821 mm Hg per sec and 6457 mm Hg per sec, respectively. Besides, the “mean LV dP/dtmin (maximum LV relaxation)” value in data set [3] (TGMini27 mice) was −8071 mm Hg per second; in [3] (TGβK12 mice), −4350 mm Hg per second. In data set [3] (TGβK12 animals versus controls), the “inotropic and chronotropic responses to isoproterenol” value is “significantly reduced”.

Consider “βARK1-(495-689) Minigene (from UniProt P21146 495-689)”, for which the stimulation of rhodopsin phosphorylation upon addition of Gβγ (~10 pmoles), heart extracts from TGMini27 mice (fold over basal) with Gβγ [4] was determined as 2.16.

B1: βARK1-(495-689) Minigene: coding sequence for the last 194 amino acids of bovine βARK1; expressed soluble protein, in vivo βARK inhibitor (protein)
chain: GIKLLDSDQELYRNFPLTISERWQQEVAETVFDTINAETDRLEARKKTKNKQLGHEEDYALGKDCIMHGYMSKMGNPFLTQWQRRYFYLFPNRLEWRGEGEAPQSLLTMEEIQSVEETQIKERKCLLLKIRGGKQFVLQCDSDPELVQWKKELRDAYREAQQLVQRVPKMKNKPRSPVVELSKVPLIQRGSANGL
Regarding B1, the “baseline LV dP/dtmax, LV dP/dtmin and LV systolic pressure compared to control animals” value in [3] (TGMini27 mice, baseline) was “statistically elevated”. In the data set with βARK, the “stimulation of rhodopsin phosphorylation by Gβγ” value is reported as 2.16±0.12 fold over basal.

B2: myocardial βARK (protein)
chain: MADLEAVLADVSYLMAMEKSKATPAARASKKILLPEPSIRSVMQKYLEDRGEVTFEKIFSQKLGYLLFRDFCLNHLEEAKPLVEFYEEIKKYEKLETEEERVVRSREIFDSYIMKELLACSHPFSKNATEHVQGHLVKKQVPPDLFQPYIEEICQNLRGDVFQKFIESDKFTRFCQWKNVELNIHLTMNDFSVHRIIGRGGFGEVYGCRKADTGKMYAMKCLDKKRIKMKQGETLALNERIMLSLVSTGDCPFIVCMSYAFHTPDKLSFILDLMNGGDLHYHLSQHGVFSEADMRFYAAEIILGLEHMHNRFVVYRDLKPANILLDEHGHVRISDLGLACDFSKKRPHASVGTHGYMAPEVLQKGVAYDSSADWFSLGCMLFKLLRGHSPFRQHKTKDKHEIDRMTLTMAVELPDSFSPELRSLLEGLLQRDVNRRLGCLGRGAQEVKESPFFRSLDWQMVFLQKYPPPLIPPRGEVNAADAFDIGSFDEEDTKGIKLLDSDQELYRNFPLTISERWQQEVAETVFDTINAETDRLEARKKAKNKQLGHEEDYALGKDCIVHGYMSKMGNPFLTQWQRRYFYLFPNRLEWRGEGEAPQSLLTMEEIQSVEETQIKERKCLLLKIRGGKQFVLQCDSDPELVQWKKELRDAYREAQQLVQRVPKMKNKPRSPVVELSKVPLIQRGSANGL
With B2, in the data set with Gβγ [5], the “stimulation of rhodopsin phosphorylation upon addition of Gβγ (~10 pmoles), control heart extracts” value was 3.02±0.31 fold over basal, n=5.
